Literature values, collected in patent US9221758B2, “Methods of synthesizing pharmaceutical salts of a factor Xa inhibitor” (Millennium Pharmaceuticals, Inc., priority 2006, dated 2015).
Read-outs that look alike come from different tables or passages of the source.

Columns and labels:
[1] = statement in words, information in US2007/0112039
[2] = molecular target: Factor Xa (Homo sapiens, UniProt P00742); details: statement in words, as discussed in U.S. Pat. No. 6,376,515
Chain of Factor Xa (P00742 235-488 limits assumed): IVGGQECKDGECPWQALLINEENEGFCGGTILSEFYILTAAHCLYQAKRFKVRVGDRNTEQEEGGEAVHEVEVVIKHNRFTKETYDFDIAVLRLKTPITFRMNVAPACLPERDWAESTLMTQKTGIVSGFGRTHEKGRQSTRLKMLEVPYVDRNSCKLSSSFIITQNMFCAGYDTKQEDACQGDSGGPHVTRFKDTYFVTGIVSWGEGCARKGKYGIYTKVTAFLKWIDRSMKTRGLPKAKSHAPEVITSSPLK
Chain of Factor Xa (P00742 41-179 partner limits assumed): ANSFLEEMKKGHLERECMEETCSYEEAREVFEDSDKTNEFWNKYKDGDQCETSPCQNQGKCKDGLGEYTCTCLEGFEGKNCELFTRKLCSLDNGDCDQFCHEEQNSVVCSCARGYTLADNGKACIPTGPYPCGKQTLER

thermal and hydrolytic stability [1]	Xa inhibitor potency [2]	SMILES	thermal and hydrolytic stability ([1]; listed as maleate salt)
excellent	–	COc1ccc(NC(=O)c2ccc(C(=N)N(C)C)cc2)c(C(=O)Nc2ccc(Cl)cn2)c1	best thermal and hydrolytic stability observed
–	potent Xa inhibitor	COc1ccc(NC(=O)c2ccc(C(=N)N(C)C)cc2)c(C(=O)Nc2ccc(Cl)cn2)c1 [compound of Formula I]	–
